What was measured:
human full-length MKNK1 [1] = target: T1, human full-length MKNK1 (Homo sapiens, UniProt Q9BUB5, T385D); experiment: MKNK1 kinase assay (TR-FRET); format: biochemical; settings: 10 μM ATP
T1 construct: GST (N); purchased Carna Biosciences 02-145; host or cells: insect cells (baculovirus expression system)
Source text: MKNK1-inhibitory activity of compounds of the present invention was quantified employing the MKNK1 TR-FRET assay as described in the following paragraphs.
A recombinant fusion protein of Glutathione-S-Transferase (GST, N-terminally) and human full-length MKNK1 (amino acids 1-424 and T344D of accession number BAA 19885.1), expressed in insect cells using baculovirus expression system and purified via glutathione sepharose affinity chromatography, was purchased from Carna Biosciences (product no 02-145) and used as enzyme. As substrate for the kinase reaction the biotinylated peptide biotin-Ahx-IKKRKLTRRKSLKG (C-terminus in amide form) was used which can be purchased e.g. form the company Biosyntan (Berlin-Buch, Germany).
For the assay 50 nL of a 100 fold concentrated solution of the test compound in DMSO was pipetted into a black low volume 384 well microtiter plate (Greiner Bio-One, Frickenhausen, Germany), 2 μL of a solution of MKNK1 in aqueous assay buffer [50 mM HEPES pH 7.5, 5 mM MgCl2, 1.0 mM dithiothreitol, 0.005% (v/v) Nonidet-P40 (Sigma)] was added and the mixture was incubated for 15 min at 22° C. to allow pre-binding of the test compounds to the enzyme before the start of the kinase reaction. Then the kinase reaction was started by the addition of 3 μL of a solution of adenosine-tri-phosphate (ATP, 16.7 μM=>final conc. in the 5 μL assay volume is 10 μM) and substrate (0.1 μM=>final conc. in the 5 μL assay volume is 0.06 μM) in assay buffer and the resulting mixture was incubated for a reaction time of 45 min at 22° C. The concentration of MKNK1 was adjusted depending of the activity of the enzyme lot and was chosen appropriate to have the assay in the linear range, typical concentrations were in the range of 0.05 μg/mL. The reaction was stopped by the addition of 5 μL of a solution of TR-FRET detection reagents (5 nM streptavidine-XL665 [Cisbio Bioassays, Codolet, France] and 1 nM anti-ribosomal protein […] (pSer236)-antibody from Invitrogen [#44921G] and 1 nM LANCE EU-W1024 Labeled ProteinG [Perkin-Elmer, product no. AD0071]) in an aqueous EDTA-solution (100 mM EDTA, 0.1% (w/v) bovine serum albumin in 50 mM HEPES pH 7.5).
The resulting mixture was incubated for 1 h at 22° C. to allow the formation of complex between the phosphorylated biotinylated peptide and the detection reagents. Subsequently the amount of phosphorylated substrate was evaluated by measurement of the resonance energy transfer from the Eu-chelate to the streptavidine-XL. Therefore, the fluorescence emissions at 620 nm and 665 nm after excitation at 350 nm were measured in a TR-FRET reader, e.g. a Rubystar (BMG Labtechnologies, Offenburg, Germany) or a Viewlux (Perkin-Elmer). […]

human full-length MKNK1 [2] = target: T1, human full-length MKNK1; experiment: MKNK1 kinase high ATP assay (TR-FRET); format: biochemical; settings: 2 mM ATP, after preincubation with MKNK1; read-out: MKNK1 IC50 (MKNK1 high ATP)
Procedure, shortened: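 Compound was preincubated 15 min at 22° C. with MKNK1 in 50 mM HEPES pH 7.5, 5 mM MgCl2, 1.0 mM DTT, then the reaction ran 30 min at 22° C. with 2 mM ATP and 0.06 μM biotinylated peptide (final).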

[3] = test system: eIF4E Ser209 phosphorylation in A549 cells; experiment: AlphaScreen SureFire eIF4E Ser209 phosphorylation assay in A549 cells with 20% FCS stimulation; format: cell-based; settings: Homo sapiens, read-out: pEIF4e (IC50 of the EIF4e phosphorylation)
Source text: The AlphaScreen SureFire eIF4E Ser209 phoshorylation assay is used to measure the phosphorylation of endogenous eIF4E in cellular lysates. The AlphaScreen SureFire technology allows the detection of phosphorylated proteins in cellular lysates. In this assay, sandwich antibody complexes, which are only formed in the presence of the analyte (p-eIF4E Ser209), are captured by AlphaScreen donor and acceptor beads, bringing them into close proximity. The excitation of the donor bead provokes the release of singlet oxygen molecules that triggers a cascade of energy transfer in the Acceptor beads, resulting in the emission of light at 520-620 nm.
Surefire EIF4e Alphascreen in A549 cells with 20% FCS stimulation
For the assay the AlphaScreen SureFire p-eIF4E Ser209 10K Assay Kit and the AlphaScreen ProteinA Kit (for 10K assay points) both from Perkin Elmer were used. On day one 50.000 A549 cells were plated in a 96-well plate in 100 μL per well in growth medium (DMEM/Hams' F12 with stable Glutamin, 10% FCS) and incubated at 37° C. After attachment of the cells, medium was changed to starving medium (DMEM, 0.1% FCS, without Glucose, with Glutamin, supplemented with 5 g/L Maltose). On day two, test compounds were serially diluted in 50 μL starving medium with a final DMSO concentration of 1% and were added to A549 cells in test plates at a final concentration range from as high 10 μM to as low 10 nM depending on the activities of the tested compounds. Treated cells were incubated at 37° C. for 2 h. 37 ul FCS was added to the wells (=final FCS concentration 20%) for 20 min. Then medium was removed and cells were lysed by adding 50 μL lysis buffer. Plates were then agitated on a plate shaker for 10 min. After 10 min lysis time, 4 μL of the lysate is transferred to a 384 well plate (Proxiplate from Perkin Elmer) and 5 μL Reaction Buffer plus Activation Buffer mix containing AlphaScreen Acceptor beads was added. Plates were sealed with TopSeal-A adhesive film, gently agitated on a plate shaker for 2 hours at room temperature. Afterwards 2 μL Dilution buffer with AlphaScreen Donor beads were added under subdued light and plates were sealed again with TopSeal-A adhesive film and covered with foil. Incubation takes place for further 2 h gently agitation at room temperature. Plates were then measured in an EnVision reader (Perkin Elmer) with the AlphaScreen program. Each data point (compound dilution) was measured as triplicate.
The IC50 values were determined by means of a 4-parameter fit using the company's own software.

[4] = test system: 221 kinases other than MKNK; experiment: Kinase selectivity profiling (Merck Millipore KinaseProfiler); format: biochemical; settings: compound at 1 μM
Procedure: Compounds of the present invention show a higher kinase inhibition selectivity than compounds disclosed in the patent applications WO 2010/023181 A1, WO 2011/104334 A1, WO 2011/104337 A1, WO 2011/104338 A1 and WO 2011/104340 A1 (Boehringer Ingelheim).
The compounds were tested at a concentration of 1 μM using 221 kinases different from MKNK. Kinase activity is expressed as a percentage of the mean kinase activity in the positive control samples. The positive control value is considered to be 100%, and all test samples are measured in relation to this value. For example, a result of 40% means that, in comparison to the positive control sample, 40% kinase activity remains in the presence of the test compound.
Table 6 lists the fraction number of 221 investigated kinases with regard to their remaining activity in the presence of 1 μM of investigated compounds.
The compound described in example 10 is compared to the compound N-[3-(dimethylamino)propyl]-4-[(4-fluoro-2-isopropoxyphenyl)amino]-5-methylthieno[2,3-d]pyrimidine-6-carboxamide which served as reference compound (ref) and has been described in WO 2010/23181, WO 2011/104340 and US 2011/212103.

T1 sequence (Q9BUB5 1-424 isoform Q9BUB5-2 T344D): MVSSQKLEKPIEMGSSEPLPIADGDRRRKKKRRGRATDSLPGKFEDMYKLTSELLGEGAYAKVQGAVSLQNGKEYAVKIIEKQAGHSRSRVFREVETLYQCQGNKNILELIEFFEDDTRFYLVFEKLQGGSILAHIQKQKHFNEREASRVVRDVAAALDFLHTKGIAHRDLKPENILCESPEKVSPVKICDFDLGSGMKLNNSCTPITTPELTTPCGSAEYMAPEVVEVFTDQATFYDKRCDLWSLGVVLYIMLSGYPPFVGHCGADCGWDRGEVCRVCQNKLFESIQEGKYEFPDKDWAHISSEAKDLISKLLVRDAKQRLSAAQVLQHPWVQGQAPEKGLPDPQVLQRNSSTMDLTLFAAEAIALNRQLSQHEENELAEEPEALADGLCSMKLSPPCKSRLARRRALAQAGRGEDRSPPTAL

IC50 (human full-length MKNK1 [1]) [nM]	IC50 (human full-length MKNK1 [2]) [nM]	IC50 [3] [nM]	Fraction number of 221 kinases with remaining activity >30% and <80% [4]	Fraction number of 221 kinases with remaining activity ≦30% [4]	Fraction number of 221 kinases with remaining activity ≧80% [4]	Structure (SMILES)
8	26	–	–	–	–	O=C(O)C1CCc2c(sc3ncnc(Nc4ccc5[nH]ncc5c4)c23)C1 (stereo not shown) [Example 2, 4-(1H-Indazol-5-ylamino)-5,6,7,8-tetrahydro[1]benzothieno[2,3-d]pyrimidine-7-carboxylic acid]
–	0.6	75	–	–	–	CC(C)NC(=O)C1CCc2c(sc3ncnc(Nc4cc5cn[nH]c5cc4OC(C)C)c23)C1 (racemic) [Example 72, (RS)—N-(Propan-2-yl)-4-{[6-(propan-2-yloxy)-1H-indazol-5-yl]amino}-5,6,7,8-tetrahydro[1]benzothieno[2,3-d]pyrimidine-7-carboxamide]
–	0.8	51	–	–	–	COc1cc2[nH]ncc2cc1Nc1ncnc2sc3c(c12)CCC(C(=O)N(C)C)C3 (racemic) [Example 64, (RS)-4-[(6-Methoxy-1H-indazol-5-yl)amino]-N,N-dimethyl-5,6,7,8-tetrahydro[1]benzothieno[2,3-d]pyrimidine-7-carboxamide]
8	9	–	–	–	–	CS(=O)(=O)CCCNC(=O)C1CCc2c(sc3ncnc(Nc4ccc5[nH]ncc5c4)c23)C1 (stereo not shown) [Example 4, 4-(1H-Indazol-5-ylamino)-N-[3-(methylsulfonyl)propyl]-5,6,7,8-tetrahydro[1]benzothieno[2,3-d]pyrimidine-7-carboxamide]
–	9.8	435	10/221	9/221	202/221	Cc1c(C(=O)NCCCN(C)C)sc2ncnc(Nc3ccc(F)cc3OC(C)C)c12 [Ref, N-[3-(dimethylamino)propyl]-4-[(4-fluoro-2-isopropoxyphenyl)amino]-5-methylthieno[2,3-d]pyrimidine-6-carboxamide, reference compound]
–	12	–	4/221	0/221	217/221	CN(C)C(=O)C1CCc2c(sc3ncnc(Nc4ccc5[nH]ncc5c4)c23)C1 (stereo not shown) [Example 10, 4-(1H-indazol-5-ylamino)-N,N-dimethyl-5,6,7,8-tetrahydro[1]benzothieno[2,3-d]pyrimidine-7-carboxamide]
–	3	171	–	–	–	O=C(NCc1cccc(C(F)(F)F)c1)C1CCc2c(sc3ncnc(Nc4ccc5[nH]ncc5c4)c23)C1 (stereo not shown) [Example 9, 4-(1H-indazol-5-ylamino)-N-[3-(trifluoromethyl)benzyl]-5,6,7,8-tetrahydro[1]benzothieno[2,3-d]pyrimidine-7-carboxamide]
2	2	165	–	–	–	CCOC(=O)C1CCc2c(sc3ncnc(Nc4cc5cn[nH]c5cc4OC)c23)C1 (stereo not shown) [Example 56, Ethyl 4-[(6-methoxy-1H-indazol-5-yl)amino]-5,6,7,8-tetrahydro[1]benzothieno[2,3-d]pyrimidine-7-carboxylate]
5	16	–	–	–	–	CCOC(=O)C1CCc2c(sc3ncnc(Nc4ccc5[nH]ncc5c4)c23)C1 (stereo not shown) [Example 1, Ethyl 4-(1H-indazol-5-ylamino)-5,6,7,8-tetrahydro[1]benzothieno[2,3-d]pyrimidine-7-carboxylate]
–	0.7	203	–	–	–	CCNC(=O)C1CCc2c(sc3ncnc(Nc4cc5cn[nH]c5cc4OC)c23)C1 (stereo not shown) [Example 58, N-Ethyl-4-[(6-methoxy-1H-indazol-5-yl)amino]-5,6,7,8-tetrahydro[1]benzothieno[2,3-d]pyrimidine-7-carboxamide]
–	0.4	90	–	–	–	CC(C)Oc1cc2[nH]ncc2cc1Nc1ncnc2sc3c(c12)CCC(C(=O)N(C)C)C3 (racemic) [Example 70, (RS)—N,N-Dimethyl-4-{[6-(propan-2-yloxy)-1H-indazol-5-yl]amino}-5,6,7,8-tetrahydro[1]benzothieno[2,3-d]pyrimidine-7-carboxamide]
–	8	252	–	–	–	COc1ccccc1NC(=O)C1CCc2c(sc3ncnc(Nc4ccc5[nH]ncc5c4)c23)C1 (stereo not shown) [Example 12, 4-(1H-indazol-5-ylamino)-N-(2-methoxyphenyl)-5,6,7,8-tetrahydro[1]benzothieno[2,3-d]pyrimidine-7-carboxamide]
–	2	344	–	–	–	Cc1cccc(CNC(=O)C2CCc3c(sc4ncnc(Nc5ccc6[nH]ncc6c5)c34)C2)c1 (stereo not shown) [Example 20, 4-(1H-indazol-5-ylamino)-N-(3-methylbenzyl)-5,6,7,8-tetrahydro[1] benzothieno [2,3-d]pyrimidine-7-carboxamide]
–	0.5	32	–	–	–	CC(C)Oc1cc2[nH]ncc2cc1Nc1ncnc2sc3c(c12)CCC(C(=O)N1CCN(C)CC1)C3 (racemic) [Example 71, (RS)-(4-Methylpiperazin-1-yl)(4-{[6-(propan-2-yloxy)-1H-indazol-5-yl]amino}-5,6,7,8-tetrahydro[1]benzothieno[2,3-d]pyrimidin-7-yl)methanone]

— patent US9540392B2, “Thienopyrimidines” (BAYER PHARMA AKTIENGESELLSCHAFT, priority 2012, dated 2017)
